Experiment: 25I-NBOMe distribution in rat blood plasma and brain regions (LC–MS/MS, ESI ion trap)
Format: in vivo
Description: Animals received single or multiple (once per day for seven days) subcutaneous injections of 25I-NBOMe dissolved in 0.9% NaCl at a dose of 0.3 mg/kg/2 ml. The control group was treated with 0.9% NaCl solution in the same way. All procedures were performed 72 h after the last injection. The time point of 72 h was chosen due to the possible generation of neurotoxicity via oxidative stress caused by reactive oxygen species (ROS). Exceptionally, for initial 25I-NBOMe brain distribution studies, rats received the drug in the dose of 1 and 10 mg/kg and were sacrificed 15 min after the drug administration. The rat blood plasma and brain tissues were collected immediately after rats’ decapitation. LSD (0.05 mg/kg, ip) was given daily for 7 days in a volume of 1 ml/kg, while MDMA 5 mg/kg, ip was injected in a volume of 2 ml/kg every second day (overall 4 injections).
The presence of 25I-NBOMe in the rat brain regions and blood serum was analyzed with electrospray ion trap mass spectrometry (Amazon SL from Bruker Daltonics, Bremen, Germany). At 72 h after the last injection with 25I-NBOMe or 15 min after injection of single low and high (1 and 10 mg/kg) dose, animals were sacrificed by decapitation. Brains were removed and the frontal cortex, striatum, nucleus accumbens, and hippocampus were dissected. The blood samples were also collected after 25I-NBOMe injections. Tissue samples were homogenized in an ice-cold 0.1 M HClO4, and were centrifuged at 10,000×g for 10 min at 4 °C. Blood was incubated for 30 min and then centrifuged for 15 min, 3000 rpm at 4 °C. The collected blood serum and tissue supernatants were frozen at − 80 °C until the time of mass spectrometry analysis. The value pH of samples was about 2. To purify the samples, solid phase extraction (SPE) columns MacroSpin Columns Silica C18 (The Nest Group, Inc., Southborough, USA) were used. Initially, columns were activated with 100% methanol (MeOH) solution by double centrifugation at 110×g for 1 min. Next, to remove MeOH, 2% acetonitrile (ACN) with 0.1% HCOOH was used. Subsequently, the columns were washed twice with the blood and tissue samples. To remove adenosine-5'-diphosphate (ADP) that has the same precursor ion as 25I-NBOMe the columns were washed twice with 2% ACN. Finally, to wash out 25I-NBOMe, the column was washed twice with 80% ACN with 0.1% HCOOH. Samples were left to dry in SpeedVac Vacuum Concentrator (Labconco, Kansas City, USA) overnight. The following day, samples were dissolved in 10% ACN with 0.1% HCOOH and injected to the LC–MS/MS system. The nanoLC-MS/MS analysis used to separate compounds was performed using the Ultimate 3000 nanocapillary chromatography system (Polygen, Gliwice, Poland). The separations were performed using a PepMap column (15 cm long, 75 μm ID, C18, 3 μm particle size, 100 Å pore size, Thermo-Scientific). The gradient was formed using 0.1% HCOOH in H2O (solvent A) and 0.1% HCOOH in ACN (solvent B), at a flow rate of 300 nl/min. The system was controlled by the Hystar software (Bruker Daltonics). A gradient was produced from 5 to 80% B in 100 min, then kept at 90% of phase B for 10 min. The mass spectrometry detection was performed in positive ion mode by electrospray ion trap mass spectrometry (Amazon SL from Bruker Daltonics, Bremen, Germany). The retention time of 25I-NBOMe was about 30.3 min. The acquired mass spectra were analyzed using the Bruker Data Analysis v. 4.0 software (Bruker Daltonics). The data presented in tables are calculated as intensity per 1 mg of wet tissue or 1 ml of blood serum, while mass spectra represent the real intensity of 25I-NBOMe-precursor ion from tissue samples with different mass.

## COc1cc(CCNCc2ccccc2OC)c(OC)cc1I [25I-NBOMe, 4-Iodo-2,5-dimethoxy-N-(2-methoxybenzyl)phenethylamine]
0.3 mg/kg × 7 vs single dose, 72 h
  Accumulation in brain tissue after repeated administration: caused drug accumulation in the brain tissue
Blood plasma, single 1 mg/kg, 15 min after injection, per 1 ml of blood serum, one sample preparation
  Intensity of the 25I-NBOMe precursor ion (~ 428 m/z): 9.24 × 10^4 a.u.
Blood plasma, single 10 mg/kg, 15 min after injection, per 1 ml of blood serum, one sample preparation
  Intensity of the 25I-NBOMe precursor ion (~ 428 m/z): 5.44 × 10^5 a.u.
Detected in blood serum and several brain regions 15 min after injection
  Crossing of the blood–brain barrier (BBB): easily crosses the blood–brain barrier (BBB)
Frontal cortex, chronic 0.3 mg/kg × 7 sc, 72 h after last injection, per 1 mg of wet tissue
  Intensity of the 25I-NBOMe precursor ion (~ 428 m/z): 2.93 × 10^4 a.u.
Frontal cortex, single 0.3 mg/kg sc, 72 h after injection, per 1 mg of wet tissue
  Intensity of the 25I-NBOMe precursor ion (~ 428 m/z): 2.25 × 10^3 a.u.
Frontal cortex, single 1 mg/kg, 15 min after injection, per 1 mg of wet tissue
  Intensity of the 25I-NBOMe precursor ion (~ 428 m/z): 2.94 × 10^4 a.u.
Frontal cortex, single 10 mg/kg, 15 min after injection, per 1 mg of wet tissue
  Intensity of the 25I-NBOMe precursor ion (~ 428 m/z): 4.36 × 10^5 a.u.
hippocampus, chronic 0.3 mg/kg × 7 sc, 72 h after last injection, per 1 mg of wet tissue
  Intensity of the 25I-NBOMe precursor ion (~ 428 m/z): 1.72 × 10^4 a.u.
hippocampus, single 0.3 mg/kg sc, 72 h after injection, per 1 mg of wet tissue
  Intensity of the 25I-NBOMe precursor ion (~ 428 m/z): 6.89 × 10^3 a.u.
hippocampus, single 1 mg/kg, 15 min after injection, per 1 mg of wet tissue
  Intensity of the 25I-NBOMe precursor ion (~ 428 m/z): 1.60 × 10^4 a.u.
hippocampus, single 10 mg/kg, 15 min after injection, per 1 mg of wet tissue
  Intensity of the 25I-NBOMe precursor ion (~ 428 m/z): 2.71 × 10^5 a.u.
Nucleus accumbens, chronic 0.3 mg/kg × 7 sc, 72 h after last injection, per 1 mg of wet tissue
  Intensity of the 25I-NBOMe precursor ion (~ 428 m/z): 9.00 × 10^3 a.u.
Nucleus accumbens, single 0.3 mg/kg sc, 72 h after injection, per 1 mg of wet tissue
  Intensity of the 25I-NBOMe precursor ion (~ 428 m/z): 3.85 × 10^3 a.u.
Nucleus accumbens, single 1 mg/kg, 15 min after injection, per 1 mg of wet tissue
  Intensity of the 25I-NBOMe precursor ion (~ 428 m/z): 2.32 × 10^7 a.u.
Nucleus accumbens, single 10 mg/kg, 15 min after injection, per 1 mg of wet tissue
  Intensity of the 25I-NBOMe precursor ion (~ 428 m/z): 7.15 × 10^7 a.u.
striatum, chronic 0.3 mg/kg × 7 sc, 72 h after last injection, per 1 mg of wet tissue
  Intensity of the 25I-NBOMe precursor ion (~ 428 m/z): 2.12 × 10^3 a.u.
striatum, single 0.3 mg/kg sc, 72 h after injection, per 1 mg of wet tissue
  Intensity of the 25I-NBOMe precursor ion (~ 428 m/z): 1.61 × 10^3 a.u.
striatum, single 1 mg/kg, 15 min after injection, per 1 mg of wet tissue
  Intensity of the 25I-NBOMe precursor ion (~ 428 m/z): 5.97 × 10^4 a.u.
striatum, single 10 mg/kg, 15 min after injection, per 1 mg of wet tissue
  Intensity of the 25I-NBOMe precursor ion (~ 428 m/z): 6.95 × 10^5 a.u.
